Assay results as given in publication PMC10897476, “Pyridylpiperazine efflux pump inhibitor boosts in vivo antibiotic efficacy against K. pneumoniae” (EMBO Molecular Medicine, 2023).
Marks after values point to notes of the source that are not given here.

Legend:
Assay type in all cases: cell-based, Klebsiella pneumoniae
[1] = test system: K. pneumoniae ATCC 43816 (WT); assay: MIC of antibiotics with and without EPI (REMA), WT strain; conditions: for Minimum Inhibitory Concentration / MIC: K. pneumoniae WT; for MIC: Klebsiella pneumoniae, ATCC43816, No EPI, read-out: Minimum Inhibitory Concentration
Description: Overnight cultures were diluted to an OD600 = 0.001 in CAMHB followed by addition of efflux pump inhibitors (EPIs) at a final concentration of 100 µM. […] Plates were incubated at 37 °C for up to 20 h. […] MICs were defined as the concentration that prevented 90% of resazurin turnover compared to the non-treated bacteria.

K. pneumoniae AcrB^V448E = assay: MIC of antibiotics with and without EPI (REMA), AcrB V448E mutant; conditions: for Minimum Inhibitory Concentration: K. pneumoniae AcrB^V448E; for MIC: Klebsiella pneumoniae, read-out: Minimum Inhibitory Concentration
Description: (§1) MIC experiments were carried out according to the CLSI guidelines (CLSI [2023]). Overnight cultures were diluted to an OD600 = 0.001 in CAMHB followed by addition of efflux pump inhibitors (EPIs) at a final concentration of 100 µM. […] Plates were incubated at 37 °C for up to 20 h. Bacterial viability was evaluated using the resazurin microtitre assay (REMA) and measured by fluorescence using a Tecan Spaert multimode plate reader (Ex: 530 nm Em: 590 nm). MICs were defined as the concentration that prevented 90% of resazurin turnover compared to the non-treated bacteria.
(§2) Mutations in acrB or ramR identified in the BDM88855.HCl (1’) resistant mutant (a.k.a., KPJC11) were introduced individually into K. pneumoniae ATCC 43816 chromosome by allelic exchange (Cianfanelli et al, [2020]). Briefly, 1-kb PCR products centred around each point mutation were generated by amplifying acrB with primers RH1251 ([…][…]) and RH1252 ([…][…]) or ramR with primers RH1249 ([…][…]) and RH1250 ([…][…]) from KPJC11 genomic DNA. PCR fragments were cloned into pFOK (Cianfanelli et al, [2020]) using NEB-building kit ([New England Biolabs]) to generate pEP1533 and pEP1534. Correct plasmids were confirmed by sequencing and introduced into K. pneumoniae ATCC43816 WT via conjugation with the MFDpir+ E. coli donor strain. Exconjugants were selected on kanamycin (50 mg/L) plates at 37 °C and plasmid chromosomal integration was checked by PCR. […] The next day, cultures were diluted and plated onto LB agar. Isolated colonies were then patched onto LB plates with or without kanamycin (50 mg/L) and Km^S candidates were evaluated for correct allelic exchange via acrB or ramR sequencing and then WGS to confirm no additional mutations were introduced.

[2] = test system: K. pneumoniae RamR^mut (K124*stop); assay: MIC of antibiotics with and without EPI (REMA), RamR mutant; conditions: for Minimum Inhibitory Concentration: K. pneumoniae RamR^mut; for MIC: Klebsiella pneumoniae, read-out: Minimum Inhibitory Concentration
Description: as §1, §2

[3] = test system: K. pneumoniae AcrB^V448E RamR^mut; assay: MIC of antibiotics with and without EPI (REMA), double mutant; conditions: for Minimum Inhibitory Concentration: K. pneumoniae AcrB^V448E RamR^mut; for MIC: Klebsiella pneumoniae, read-out: Minimum Inhibitory Concentration
Description: as §1

Q: For `CC[C@H]1OC(=O)[C@H](C)[C@@H](O[C@H]2C[C@@](C)(OC)[C@@H](O)[C@H](C)O2)[C@H](C)[C@@H](O[C@@H]2O[C@H](C)C[C@H](N(C)C)[C@H]2O)[C@](C)(O)C[C@@H](C)CN(C)[C@H](C)[C@@H](O)[C@]1(C)O` [Azithromycin], which “Minimum Inhibitory Concentration” value ([1]; + 100 µM 1') is on record?
A: Its value is 2.7^# mg/L.

Q: And the “Minimum Inhibitory Concentration” value ([1]; + 100 µM 5)?
A: The value was 2.0^# mg/L.

Q: And the “Minimum Inhibitory Concentration” value ([1]; + 100 µM PAβN)?
A: The value was 0.5^# mg/L.

Q: And the MIC [1]?
A: The MIC was 16 µg/mL.

Q: What about the “boosting of antibiotic activity in combination with EPIs” value ([1]; Table 2) of the same molecule?
A: Its value is “at least 8 fold”.

Q: What about the “Minimum Inhibitory Concentration” value (K. pneumoniae AcrB^V448E; + 100 µM 1') of the same molecule?
A: Its value is 6.7^# mg/L.

Q: And the “Minimum Inhibitory Concentration” value (K. pneumoniae AcrB^V448E; + 100 µM 5)?
A: The value was 11^# mg/L.

Q: And the “Minimum Inhibitory Concentration” value (K. pneumoniae AcrB^V448E; + 100 µM PAβN)?
A: Its value is 0.5^# mg/L.

Q: And the MIC (K. pneumoniae AcrB^V448E)?
A: Its MIC is 21 µg/mL.

Q: What about the “Minimum Inhibitory Concentration” value ([2]; + 100 µM 1') of the same molecule?
A: The value was 11^# mg/L.

Q: What about the “Minimum Inhibitory Concentration” value ([2]; + 100 µM 5) of the same molecule?
A: The value was 3.3^# mg/L.

Q: What about the “Minimum Inhibitory Concentration” value ([2]; + 100 µM PAβN) of the same molecule?
A: The value was 0.7^# mg/L.

Q: What about the MIC [2] of the same molecule?
A: The MIC was 37 µg/mL.

Q: And the “Minimum Inhibitory Concentration” value ([3]; + 100 µM 1')?
A: The value was 37 mg/L.

Q: And the “Minimum Inhibitory Concentration” value ([3]; + 100 µM 5)?
A: The value was 21 mg/L.

Q: What about the “Minimum Inhibitory Concentration” value ([3]; + 100 µM PAβN) of the same molecule?
A: Its value is 0.7^# mg/L.

Q: And the MIC [3]?
A: The MIC was 21 µg/mL.

Q: How did the “Minimum Inhibitory Concentration” value ([1]; + 100 µM 1') turn out when `C[C@H]1[C@H](NC(=O)/C(=N\OC(C)(C)C(=O)O)c2csc(N)n2)C(=O)N1S(=O)(=O)O` [Aztreonam] was run?
A: The value was 0.11 mg/L.

Q: And the “Minimum Inhibitory Concentration” value ([1]; + 100 µM 5)?
A: Its value is 0.11 mg/L.

Q: What about the “Minimum Inhibitory Concentration” value ([1]; + 100 µM PAβN) of the same molecule?
A: Its value is 0.16 mg/L.

Q: What about the MIC [1] of the same molecule?
A: Its MIC is 0.07 µg/mL.

Q: What about the “Minimum Inhibitory Concentration” value (K. pneumoniae AcrB^V448E; + 100 µM 1') of the same molecule?
A: The value was 0.16 mg/L.

Q: And the “Minimum Inhibitory Concentration” value (K. pneumoniae AcrB^V448E; + 100 µM 5)?
A: Its value is 0.21 mg/L.

Q: What about the “Minimum Inhibitory Concentration” value (K. pneumoniae AcrB^V448E; + 100 µM PAβN) of the same molecule?
A: Its value is 0.32 mg/L.

Q: What about the MIC (K. pneumoniae AcrB^V448E) of the same molecule?
A: Its MIC is 0.13 µg/mL.

Q: And the “Minimum Inhibitory Concentration” value ([2]; + 100 µM 1')?
A: The value was 0.32 mg/L.

Q: And the “Minimum Inhibitory Concentration” value ([2]; + 100 µM 5)?
A: The value was 0.27 mg/L.

Q: What about the “Minimum Inhibitory Concentration” value ([2]; + 100 µM PAβN) of the same molecule?
A: The value was 0.53 mg/L.

Q: And the MIC [2]?
A: Its MIC is 0.43 µg/mL.

Q: What about the “Minimum Inhibitory Concentration” value ([3]; + 100 µM 1') of the same molecule?
A: Its value is 0.53 mg/L.

Q: And the “Minimum Inhibitory Concentration” value ([3]; + 100 µM 5)?
A: The value was 0.75 mg/L.

Q: What about the “Minimum Inhibitory Concentration” value ([3]; + 100 µM PAβN) of the same molecule?
A: The value was 0.53 mg/L.

Q: What about the MIC [3] of the same molecule?
A: Its MIC is 0.53 µg/mL.

Q: Which “Minimum Inhibitory Concentration” value ([1]; + 100 µM 1') does the source give for `CO/N=C(\C(=O)N[C@@H]1C(=O)N2C(C(=O)[O-])=C(C[N+]3(C)CCCC3)CS[C@H]12)c1csc(N)n1` [Cefepime] here?
A: The value was 0.05 mg/L.

Q: What about the “Minimum Inhibitory Concentration” value ([1]; + 100 µM 5) of the same molecule?
A: The value was 0.05 mg/L.

Q: What about the “Minimum Inhibitory Concentration” value ([1]; + 100 µM PAβN) of the same molecule?
A: The value was 0.21 mg/L.

Q: And the MIC [1]?
A: Its MIC is 0.09 µg/mL.

Q: What about the “Minimum Inhibitory Concentration” value (K. pneumoniae AcrB^V448E; + 100 µM 1') of the same molecule?
A: Its value is 0.05 mg/L.

Q: And the “Minimum Inhibitory Concentration” value (K. pneumoniae AcrB^V448E; + 100 µM 5)?
A: Its value is 0.04 mg/L.

Q: And the “Minimum Inhibitory Concentration” value (K. pneumoniae AcrB^V448E; + 100 µM PAβN)?
A: Its value is 0.64 mg/L.

Q: And the MIC (K. pneumoniae AcrB^V448E)?
A: Its MIC is 0.06 µg/mL.

Q: And the “Minimum Inhibitory Concentration” value ([2]; + 100 µM 1')?
A: Its value is 0.64 mg/L.

Q: What about the “Minimum Inhibitory Concentration” value ([2]; + 100 µM 5) of the same molecule?
A: The value was 0.11^# mg/L.

Q: And the “Minimum Inhibitory Concentration” value ([2]; + 100 µM PAβN)?
A: The value was 0.64 mg/L.

Q: What about the MIC [2] of the same molecule?
A: Its MIC is 0.53 µg/mL.

Q: And the “Minimum Inhibitory Concentration” value ([3]; + 100 µM 1')?
A: Its value is 0.85 mg/L.

Q: And the “Minimum Inhibitory Concentration” value ([3]; + 100 µM 5)?
A: The value was 0.96 mg/L.

Q: And the “Minimum Inhibitory Concentration” value ([3]; + 100 µM PAβN)?
A: The value was 0.85 mg/L.

Q: And the MIC [3]?
A: Its MIC is 0.75 µg/mL.

Q: For `Cc1onc(-c2ccccc2)c1C(=O)N[C@@H]1C(=O)N2[C@@H]1SC(C)(C)[C@@H]2C(=O)O` [Oxacillin], which “Minimum Inhibitory Concentration” value ([1]; + 100 µM 1') is on record?
A: Its value is 32^# mg/L.

Q: What about the “Minimum Inhibitory Concentration” value ([1]; + 100 µM 5) of the same molecule?
A: The value was 43^# mg/L.
